Experimental data as given in the supplement of paper PMC12370961.

How the values were obtained:
Test in all cases: differential drug sensitivity score (dDSS) relative to sarcoma reference cohort mean DSS (DSS units (0-100 scale difference)); higher = more selective sensitivity than reference sarcomas
Conditions in all cases: exposure time: 72 h; concentration range: 10-10000 nM
ES-ZH009 = test system: ES-ZH009 (patient-derived Ewing sarcoma tumoroid)
Procedure: (§1)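 Drug response profiling of patient-derived Ewing sarcoma and CIC::DUX4 sarcoma tumoroid models (or cells tested directly after isolation from the tumor, 'direct'). The DSS is the normalised AUC (0-100); dDSS is the sample DSS minus the mean DSS of a 34-sarcoma reference cohort profiled in the same lab.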

ES-ZH008 = test system: ES-ZH008 (patient-derived Ewing sarcoma tumoroid)
Procedure: as §1

CDS-ZH002 = test system: CDS-ZH002 (patient-derived CIC-DUX4 sarcoma tumoroid)
Procedure: as §1

CDS-ZH002 direct = test system: CDS-ZH002 direct (CIC-DUX4 sarcoma cells right after isolation)
Procedure: as §1

ES-ZH004 = test system: ES-ZH004 (patient-derived Ewing sarcoma tumoroid)
Procedure: as §1

ES-ZH001 = test system: ES-ZH001 (patient-derived Ewing sarcoma tumoroid)
Procedure: as §1

ES-ZH007 = test system: ES-ZH007 (patient-derived Ewing sarcoma tumoroid)
Procedure: as §1

ES-ZH016 direct = test system: ES-ZH016 direct (Ewing sarcoma cells right after isolation)
Procedure: as §1

CDS-ZH003 = test system: CDS-ZH003 (patient-derived CIC-DUX4 sarcoma tumoroid)
Procedure: as §1

CDS-ZH001 = test system: CDS-ZH001 (patient-derived CIC-DUX4 sarcoma tumoroid)
Procedure: as §1

ES-ZH016 = test system: ES-ZH016 (patient-derived Ewing sarcoma tumoroid)
Procedure: as §1

ES-ZH002 = test system: ES-ZH002 (patient-derived Ewing sarcoma tumoroid)
Procedure: as §1

CDS-ZH001-2 = test system: CDS-ZH001-2 (patient-derived CIC-DUX4 sarcoma tumoroid)
Procedure: as §1

Structure (SMILES) | differential drug sensitivity score (ES-ZH009) | differential drug sensitivity score (ES-ZH008) | differential drug sensitivity score (CDS-ZH002) | differential drug sensitivity score (CDS-ZH002 direct) | differential drug sensitivity score (ES-ZH004) | differential drug sensitivity score (ES-ZH001) | differential drug sensitivity score (ES-ZH007) | differential drug sensitivity score (ES-ZH016 direct) | differential drug sensitivity score (CDS-ZH003) | differential drug sensitivity score (CDS-ZH001) | differential drug sensitivity score (ES-ZH016) | differential drug sensitivity score (ES-ZH002) | differential drug sensitivity score (CDS-ZH001-2)
CNC(=O)Nc1ccc2c(c1)CC[C@@]21OC(=O)N(CC(=O)N(Cc2ccc(F)cc2)[C@@H](C)C(F)(F)F)C1=O [A-485] | 2.6 | 1.4 | 6.8 | 6.8 | -3.4 | 4.6 | 2.9 | -5.4 | 22.3 | 8.4 | -4 | 5.2 | -2.1
NC1(c2ccc(-c3nc4ccn5c(=O)[nH]nc5c4cc3-c3ccccc3)cc2)CCC1 [MK-2206] | 4.8 | 13.3 | -3.1 | 0.7 | 6.8 | 1.8 | 3.4 | 15.8 | -2.3 | 3.7 | 0.5 | 14 | 10.4
COC1=CC(c2cc3ccccc3[nH]2)=N/C1=C\c1[nH]c(C)cc1C [Obatoclax] | 1.5 | 4 | -2.4 | 4.4 | 6.9 | -0.7 | 7.5 | 3.3 | -3 | -3.8 | 2.1 | 2.9 | -0.2
O=C(Cc1ccc(-c2ccc(OCCN3CCOCC3)cc2)cn1)NCc1ccccc1 [Tirbanibulin] | 10.5 | 6.4 | 4 | 1.7 | 5.9 | 9.3 | 4.5 | 7.2 | -7.7 | 8.2 | 11.4 | 13.5 | 1.4
O=C(/C=C\n1cnc(-c2cc(C(F)(F)F)cc(C(F)(F)F)c2)n1)NNc1ccccn1 [Verdinexor] | -3.2 | 17.7 | -3.6 | 0 | 8.4 | 3.4 | 1.5 | 3.7 | -13 | 0.6 | 0.1 | 11 | 7.9
Nc1ccccc1NC(=O)c1ccc(CNC(=O)OCc2cccnc2)cc1 [Entinostat] | 2.1 | 5.6 | -3 | 1.3 | 7.1 | 0.2 | 5.5 | 5.6 | -2.1 | -4.9 | -0.2 | 4.9 | 0.5
CC[C@]1(O)C[C@@H]2CN(CCc3c([nH]c4ccccc34)[C@@](C(=O)OC)(c3cc4c(cc3OC)N(C)[C@H]3[C@@](O)(C(=O)OC)[C@H](OC(C)=O)[C@]5(CC)C=CCN6CC[C@]43[C@@H]65)C2)C1 [Vinblastine] | 23.7 | 12.7 | 13.2 | 8.4 | 12.3 | 22.3 | 13.2 | 10.2 | -9.2 | 9.1 | 16.2 | 22.2 | 2.2
CC(C)(C)c1cc(NC(=O)Nc2ccc(-c3cn4c(n3)sc3cc(OCCN5CCOCC5)ccc34)cc2)no1 [Quizartinib] | 3.6 | 0.6 | -2.9 | 8.3 | -0.8 | -1.7 | 2.4 | 9.4 | -3.2 | -2.8 | -0.6 | 1.6 | 13.2
CCCCN(Cc1ccc(C(=O)NO)cc1)C(=O)Nc1ccccc1 [Nexturastat A] | 0.5 | 5 | -0.4 | 2.4 | -0.7 | 2.9 | 2.1 | 4.4 | 2.1 | 0.8 | -1.3 | 0.9 | 5.3
CC(C)C[C@H](NC(=O)[C@H](Cc1ccccc1)NC(=O)c1cnccn1)B(O)O [Bortezomib] | 7 | -0.2 | 3.6 | 6.9 | 5.5 | 3.9 | 6.4 | -2.6 | 6 | 6.9 | -5.9 | 4.7 | 6
Cn1cc(-c2cnn3c(N)c(Br)c([C@@H]4CCCNC4)nc23)cn1 [MK-8776] | 6.8 | 8.5 | -1.5 | 1.1 | -2.9 | 4.7 | 1.8 | 6.3 | -6.8 | 4.4 | -1.8 | 8.9 | 7.1
Nc1cccc2c1C(=O)N(C1CCC(=O)NC1=O)C2=O (configuration not stated) [Pomalidomide] | -1.3 | 3 | -1.4 | -1.4 | 0.4 | -1.1 | -1.2 | -1.2 | -1.3 | -0.6 | -1.4 | 6.4 | -1.4
CC(C)(C)c1nc(-c2cccc(NS(=O)(=O)c3c(F)cccc3F)c2F)c(-c2ccnc(N)n2)s1 [Dabrafenib] | 3.9 | 0.8 | -1.2 | -1.2 | -0.7 | 11.1 | -1.1 | 2.3 | -1.2 | -1.2 | -1.2 | 7.7 | -1.2
CN[C@@H](C)C(=O)N[C@H](C(=O)N1CCC[C@H]1C(=O)Nc1snnc1-c1ccccc1)C1CCCCC1 [GDC0152] | 4.5 | 10.7 | -2.5 | 5.8 | 4.8 | -3.6 | -0.8 | 0.6 | 11.1 | 12.4 | -3.6 | 1.9 | 7.6
